The term IC50 denotes the point on the concentration scale where inhibition reaches its midpoint.

One experiment has as its system SH SY5Y cells. As to the kind of experiment: Cell viability assay for amyloid toxicity using MTT reduction. Type of experiment: cell-based. Particulars: protection of SH SY5Y cells from a toxic insult of 10µM Aβ(1-42), MTT reduction as measure of cell viability, 24 h incubation. As to the method: Aβ(1-42) was prepared for amyloid aggregation and toxicity assays by dissolving Aβ(1-42) HCl salt in hexafluoroisopropanol (HFIP), with brief sonication and vortexing. This solution of the Aβ(1-42) peptide in HFIP was stored at 4°C @ 2mM. When required, an aliquot of this stock solution was freeze-dried and dissolved in DMSO to 200 times the required final assay concentration (e.g. 2mM for a final assay concentration of 10 µM).
A 20mM stock solution of each test compound was prepared in DMSO, and aliquots of these solutions were used to prepare further stock solutions of each test compound in DMSO, ranging in concentration from 3µM up to 10mM. These stock solutions were prepared for use as and when required and stored at -20°C (maximum of 3 freeze-thaw cycles). The 20mM parent stock solutions were stored frozen at -20 °C.
The activity of compounds in protecting SH SY5Y cells from a toxic insult of 10µM Aβ(1-42) was assessed by using inhibition of MTT reduction as a measure of cell viability. An aliquot (3µl) of test compound [various concentrations] in DMSO is added to 294 µl of Opti-Mem (containing 2% FBS, 1% Pen/Strep, 1% L-Gln) {daughter plate}. The well is mixed thoroughly. Then an aliquot (3 µl) of Aβ(1-42) [2mM] is added to the daughter plate wells and again mixed thoroughly. 50 µl is then aspirated and dispensed into wells containing 50 µl media + SH SY5Ycells (cells are also plated in Opti-Mem, at ∼ 30,000 cells/well/50 µl). […]
Cell plates are incubated for 24 h and then the MTT assay (Shearman, 1999), is performed. […] The plate was shaken and the absorbance was recorded at both 570 nm and 650 nm. ΔA values were calculated by subtracting absorbance at 650 nm from absorbance at 570 nm, to reduce non-specific background absorbance. ΔA values from equivalent experiments were averaged and % cell viability was determined as follows: % cell viability = ([ΔA(sample)-ΔA(deal cell control)] x 100%)/([ΔA(live cell control)-ΔA(dead cell control)]) [formula] • Live cell controls: 1% DMSO in Opti-Mem • Dead cell controls: 0.1% Triton X-100 added to cells […]
A general note: Tetrazolium assays rely on reduction of a dye to a coloured formazan, in cell work by metabolically active cells.

In experiment [1] the test system is rat hippocampal brain slices. Description: Long-term potentiation (LTP) in hippocampal brain slices, Aβ(1-42)-induced depression of LTP. The settings on record: compound at 3µM, Schaffer collateral stimulation. As to the method: Long-term potentiation (LTP) is a natural, prolonged electrophysiological response associated with the neurological processes of learning and short-term memory, which are affected in Alzheimer's disease. […] LTP was measured using stimulation of Schaffer collaterals in rat hippocampal brain slices, as described below.
20µL of 5mM Example 1 in DMSO was added to the stock Aβ(1-42) (1mL) and agitated at 37°C for 24hr. On the experimental day the mixture is diluted to 33mL in aCSF (32mL) immediately prior to use. The final concentration of Example 1 was 3µM. The final concentration of Aβ(1-42) was 1µM and the final concentration of DMSO was 0.06% […]
Schaffer collaterals were stimulated (3-22V, 0.1ms pulse width, 0.03Hz) with a concentric bipolar electrode and the evoked extracellular field excitatory postsynaptic potentials (fEPSPs) were recorded via an Axoclamp 2A amplifier from the stratum radiatum of the CA1 region of the hippocampus with a glass capillary microelectrode filled with 4M NaCl (resistance 2-4 MΩ). […] A 10 minute stable baseline period (control) was recorded followed by administration of test compound 10 minutes prior to high frequency stimulation (1sec 100Hz train) applied three times at 10 minute intervals with an 80 minute wash of test compound after the final high frequency stimulation protocol. […]

Molecule `Fc1cccc2c1OCCN2c1ncc(Oc2cccc(N3CCOCC3)c2)cn1` [Example 1, 8-Fluoro-4-[5-(3-morpholinophenoxy)pyrimidin-2-yl]-3,4-dihydro-2H-benzo[1,4]oxazine] yielded an IC50 with SH SY5Y cells (Homo sapiens) of 23 µM. In addition, the “toxic effect of 1µM Aβ(1-42) on LTP” value in experiment [1] was “effectively blocked”.
Regarding `Fc1ccc2c(c1)N(c1ncc(Oc3cccc(N4CCOCC4)c3)cn1)CCO2` [Example 2, 6-Fluoro-4-[5-(3-morpholinophenoxy)pyrimidin-2-yl]-3,4-dihydro-2H-benzo[1,4]oxazine], the IC50 with SH SY5Y cells (Homo sapiens) is 26 µM. This counts as double-digit micromolar.
With `Oc1cccc(Nc2ccc(Nc3cccc(O)c3)nn2)c1` [RS-0406, reference compound], half-maximal inhibition in the experiment on SH SY5Y cells (IC50) was put at 35 µM.

Source of the values: EP2571872B1, “COMPOUNDS” (Treherne, Johnathan Mark, priority 2010, dated 2011).
